Holding throughout (type): biochemical
For experiment [1], the target named is 320 wild-type protein kinases (Homo sapiens, UniProt O00311). Particulars: singlicate. From the text: (§1) Table S4. Profiling of two compounds at two concentrations against 320 wild-type protein kinases; singlicate measurement; Residual activities (% of control).
The target of experiment [2] is T1, 320 wild-type protein kinases (Homo sapiens, UniProt O14920).
T1 sequence (O14920 1-756): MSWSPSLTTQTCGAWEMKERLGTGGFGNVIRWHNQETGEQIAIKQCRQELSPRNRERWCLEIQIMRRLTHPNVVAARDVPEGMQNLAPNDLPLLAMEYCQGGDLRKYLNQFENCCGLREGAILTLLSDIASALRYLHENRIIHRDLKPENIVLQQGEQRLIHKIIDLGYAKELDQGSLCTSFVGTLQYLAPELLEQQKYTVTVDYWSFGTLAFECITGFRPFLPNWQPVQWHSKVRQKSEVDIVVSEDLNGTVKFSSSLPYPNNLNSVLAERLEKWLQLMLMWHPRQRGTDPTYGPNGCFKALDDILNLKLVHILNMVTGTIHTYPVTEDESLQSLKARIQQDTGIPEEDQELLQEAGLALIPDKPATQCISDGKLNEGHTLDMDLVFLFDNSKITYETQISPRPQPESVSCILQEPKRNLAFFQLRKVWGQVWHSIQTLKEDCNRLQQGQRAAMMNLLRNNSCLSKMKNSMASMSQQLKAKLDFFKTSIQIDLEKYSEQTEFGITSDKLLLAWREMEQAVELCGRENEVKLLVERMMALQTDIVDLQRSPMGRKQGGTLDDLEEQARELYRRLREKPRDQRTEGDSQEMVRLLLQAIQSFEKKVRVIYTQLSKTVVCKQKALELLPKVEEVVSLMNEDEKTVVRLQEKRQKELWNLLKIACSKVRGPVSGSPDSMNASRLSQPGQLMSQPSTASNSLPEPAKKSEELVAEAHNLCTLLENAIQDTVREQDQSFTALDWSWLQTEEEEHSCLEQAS
Particulars: IKK-beta, singlicate.
Text: as §1

Experiment [3] has as its target 320 wild-type protein kinases (Homo sapiens, UniProt P12931). As to conditions: kinase SRC (GST-HIS-tag), singlicate.
Text: as §1

The target in experiment [4] is T2, 320 wild-type protein kinases (Homo sapiens, UniProt P25098).
T2 sequence (P25098 1-689): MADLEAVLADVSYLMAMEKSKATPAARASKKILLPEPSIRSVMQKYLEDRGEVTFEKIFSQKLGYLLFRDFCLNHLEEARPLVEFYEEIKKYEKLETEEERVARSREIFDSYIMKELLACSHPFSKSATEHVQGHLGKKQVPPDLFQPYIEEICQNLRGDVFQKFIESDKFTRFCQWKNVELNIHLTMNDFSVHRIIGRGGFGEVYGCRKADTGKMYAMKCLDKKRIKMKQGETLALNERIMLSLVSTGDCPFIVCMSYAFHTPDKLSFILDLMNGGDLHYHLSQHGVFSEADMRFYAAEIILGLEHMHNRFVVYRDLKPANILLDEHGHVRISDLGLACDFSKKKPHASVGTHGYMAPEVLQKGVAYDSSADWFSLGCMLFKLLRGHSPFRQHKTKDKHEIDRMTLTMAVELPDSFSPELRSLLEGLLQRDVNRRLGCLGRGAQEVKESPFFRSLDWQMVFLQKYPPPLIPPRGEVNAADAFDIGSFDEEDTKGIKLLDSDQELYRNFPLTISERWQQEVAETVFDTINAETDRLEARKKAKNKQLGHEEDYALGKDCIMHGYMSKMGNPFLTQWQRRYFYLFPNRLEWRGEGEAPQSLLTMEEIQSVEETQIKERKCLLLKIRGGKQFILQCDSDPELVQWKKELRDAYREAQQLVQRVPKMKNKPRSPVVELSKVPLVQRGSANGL
As to conditions: singlicate.
Text: as §1

Experiment [5] deals with 320 wild-type protein kinases (Homo sapiens, UniProt P49674). Particulars: CK1-epsilon, singlicate.
Chain of 320 wild-type protein kinases (Homo sapiens, UniProt P49674) (P49674 whole entry): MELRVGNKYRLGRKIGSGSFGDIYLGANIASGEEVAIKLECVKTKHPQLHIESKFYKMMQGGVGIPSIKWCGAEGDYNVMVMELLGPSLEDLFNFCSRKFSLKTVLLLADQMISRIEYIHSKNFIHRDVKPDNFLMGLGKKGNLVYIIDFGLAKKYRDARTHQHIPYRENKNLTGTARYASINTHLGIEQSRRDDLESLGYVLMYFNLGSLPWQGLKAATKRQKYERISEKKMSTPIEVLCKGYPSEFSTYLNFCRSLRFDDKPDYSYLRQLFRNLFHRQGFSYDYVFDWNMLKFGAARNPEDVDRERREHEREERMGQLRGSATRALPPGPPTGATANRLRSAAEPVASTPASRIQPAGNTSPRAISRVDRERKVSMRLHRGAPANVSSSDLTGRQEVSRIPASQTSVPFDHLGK
Text: as §1

Experiment [6] addresses 320 wild-type protein kinases (Homo sapiens, UniProt P50613). As to conditions: singlicate.
Text: as §1

Experiment [7] concerns the target 320 wild-type protein kinases (Homo sapiens, UniProt Q16288). Particulars: kinase TRK-C, singlicate.
Text: as §1

Experiment [8] addresses 320 wild-type protein kinases (Homo sapiens, UniProt Q5TCY1). Particulars: kinase TTBK1, singlicate.
Text: as §1

Experiment [9] deals with T3, 320 wild-type protein kinases (Homo sapiens, UniProt Q92630).
T3 sequence (Q92630 1-601): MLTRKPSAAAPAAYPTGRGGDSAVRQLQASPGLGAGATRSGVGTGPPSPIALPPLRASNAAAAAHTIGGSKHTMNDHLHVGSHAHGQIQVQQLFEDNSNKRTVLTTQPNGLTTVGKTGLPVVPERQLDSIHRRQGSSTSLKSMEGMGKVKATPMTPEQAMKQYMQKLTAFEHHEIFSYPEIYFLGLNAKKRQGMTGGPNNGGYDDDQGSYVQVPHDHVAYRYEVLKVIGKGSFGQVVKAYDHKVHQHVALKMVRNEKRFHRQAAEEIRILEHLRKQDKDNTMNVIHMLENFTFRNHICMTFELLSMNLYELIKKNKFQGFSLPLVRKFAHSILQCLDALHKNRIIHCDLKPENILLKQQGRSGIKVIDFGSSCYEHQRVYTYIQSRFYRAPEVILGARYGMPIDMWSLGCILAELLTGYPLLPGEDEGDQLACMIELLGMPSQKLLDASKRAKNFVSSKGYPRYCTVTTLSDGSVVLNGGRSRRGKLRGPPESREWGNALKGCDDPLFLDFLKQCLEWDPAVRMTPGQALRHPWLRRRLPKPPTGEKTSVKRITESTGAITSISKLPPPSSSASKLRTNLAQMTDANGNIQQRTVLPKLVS
Particulars: singlicate.
Text: as §1

The target in experiment [10] is 320 wild-type protein kinases (Homo sapiens, UniProt Q9UEW8). As to conditions: kinase STK39, singlicate.
Text: as §1

Read-outs that look alike come from different tables or passages of the source.

Chain of 320 wild-type protein kinases (Homo sapiens, UniProt Q16288) (Q16288 32-839): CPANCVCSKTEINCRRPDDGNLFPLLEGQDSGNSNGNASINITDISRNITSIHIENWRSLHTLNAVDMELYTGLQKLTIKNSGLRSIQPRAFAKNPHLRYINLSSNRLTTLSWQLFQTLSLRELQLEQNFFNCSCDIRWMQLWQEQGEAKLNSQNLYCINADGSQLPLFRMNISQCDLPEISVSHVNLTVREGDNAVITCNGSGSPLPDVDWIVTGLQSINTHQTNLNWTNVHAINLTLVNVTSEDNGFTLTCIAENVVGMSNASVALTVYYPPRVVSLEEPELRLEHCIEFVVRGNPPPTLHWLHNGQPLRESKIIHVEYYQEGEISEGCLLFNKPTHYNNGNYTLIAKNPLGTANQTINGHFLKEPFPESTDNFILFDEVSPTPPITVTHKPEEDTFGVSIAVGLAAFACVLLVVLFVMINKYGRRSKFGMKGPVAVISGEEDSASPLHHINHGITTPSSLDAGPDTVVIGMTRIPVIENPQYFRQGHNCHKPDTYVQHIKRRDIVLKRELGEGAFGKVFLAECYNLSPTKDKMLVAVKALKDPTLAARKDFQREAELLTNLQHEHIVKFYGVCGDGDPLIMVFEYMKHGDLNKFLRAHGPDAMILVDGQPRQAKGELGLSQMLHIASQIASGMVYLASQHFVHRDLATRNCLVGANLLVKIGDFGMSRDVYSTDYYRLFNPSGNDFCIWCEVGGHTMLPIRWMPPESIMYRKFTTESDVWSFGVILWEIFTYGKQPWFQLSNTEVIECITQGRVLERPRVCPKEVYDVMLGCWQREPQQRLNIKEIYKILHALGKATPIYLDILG
Chain of 320 wild-type protein kinases (Homo sapiens, UniProt Q5TCY1) (Q5TCY1 whole entry): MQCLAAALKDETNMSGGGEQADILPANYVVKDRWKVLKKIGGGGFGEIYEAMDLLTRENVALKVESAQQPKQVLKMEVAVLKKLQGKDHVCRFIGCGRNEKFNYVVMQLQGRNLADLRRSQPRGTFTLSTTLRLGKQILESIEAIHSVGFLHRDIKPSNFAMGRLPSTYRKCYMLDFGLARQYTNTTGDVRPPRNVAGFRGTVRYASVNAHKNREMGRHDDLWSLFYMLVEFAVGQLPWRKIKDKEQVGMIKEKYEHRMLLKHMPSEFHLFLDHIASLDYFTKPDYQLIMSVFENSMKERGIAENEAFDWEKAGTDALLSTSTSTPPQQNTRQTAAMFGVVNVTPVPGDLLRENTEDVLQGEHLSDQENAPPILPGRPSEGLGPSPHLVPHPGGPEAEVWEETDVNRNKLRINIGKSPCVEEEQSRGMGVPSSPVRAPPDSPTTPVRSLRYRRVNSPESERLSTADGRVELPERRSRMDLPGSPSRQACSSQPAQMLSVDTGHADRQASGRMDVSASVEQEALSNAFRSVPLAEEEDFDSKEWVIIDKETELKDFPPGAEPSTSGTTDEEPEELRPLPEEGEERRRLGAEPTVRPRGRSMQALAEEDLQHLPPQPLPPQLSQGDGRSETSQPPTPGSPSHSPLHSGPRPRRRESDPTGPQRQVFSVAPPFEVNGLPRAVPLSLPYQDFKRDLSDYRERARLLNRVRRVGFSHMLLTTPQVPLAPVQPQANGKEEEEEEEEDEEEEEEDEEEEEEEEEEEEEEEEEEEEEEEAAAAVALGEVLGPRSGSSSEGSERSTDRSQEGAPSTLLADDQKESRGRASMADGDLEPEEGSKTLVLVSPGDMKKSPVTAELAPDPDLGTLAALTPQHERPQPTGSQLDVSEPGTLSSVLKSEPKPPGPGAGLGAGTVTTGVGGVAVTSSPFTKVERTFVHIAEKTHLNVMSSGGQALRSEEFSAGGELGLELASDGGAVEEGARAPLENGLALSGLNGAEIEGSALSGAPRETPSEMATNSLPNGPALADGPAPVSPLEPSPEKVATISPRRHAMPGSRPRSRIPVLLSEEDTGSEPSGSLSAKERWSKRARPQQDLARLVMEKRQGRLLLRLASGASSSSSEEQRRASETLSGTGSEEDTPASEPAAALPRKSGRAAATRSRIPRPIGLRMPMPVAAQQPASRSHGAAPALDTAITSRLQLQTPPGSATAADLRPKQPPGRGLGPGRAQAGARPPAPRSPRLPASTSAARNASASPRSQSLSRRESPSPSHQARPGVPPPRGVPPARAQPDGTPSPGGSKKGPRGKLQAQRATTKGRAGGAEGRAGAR
Chain of 320 wild-type protein kinases (Homo sapiens, UniProt P50613) (P50613 whole entry): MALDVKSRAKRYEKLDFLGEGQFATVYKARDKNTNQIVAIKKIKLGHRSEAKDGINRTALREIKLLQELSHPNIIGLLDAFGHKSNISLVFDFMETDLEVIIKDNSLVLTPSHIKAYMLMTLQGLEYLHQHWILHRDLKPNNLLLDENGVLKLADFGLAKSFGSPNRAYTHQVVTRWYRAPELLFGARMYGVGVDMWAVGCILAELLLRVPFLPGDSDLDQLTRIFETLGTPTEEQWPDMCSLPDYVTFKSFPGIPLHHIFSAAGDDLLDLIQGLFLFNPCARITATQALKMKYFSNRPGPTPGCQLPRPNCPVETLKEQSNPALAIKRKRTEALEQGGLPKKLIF
Chain of 320 wild-type protein kinases (Homo sapiens, UniProt O00311) (O00311 whole entry): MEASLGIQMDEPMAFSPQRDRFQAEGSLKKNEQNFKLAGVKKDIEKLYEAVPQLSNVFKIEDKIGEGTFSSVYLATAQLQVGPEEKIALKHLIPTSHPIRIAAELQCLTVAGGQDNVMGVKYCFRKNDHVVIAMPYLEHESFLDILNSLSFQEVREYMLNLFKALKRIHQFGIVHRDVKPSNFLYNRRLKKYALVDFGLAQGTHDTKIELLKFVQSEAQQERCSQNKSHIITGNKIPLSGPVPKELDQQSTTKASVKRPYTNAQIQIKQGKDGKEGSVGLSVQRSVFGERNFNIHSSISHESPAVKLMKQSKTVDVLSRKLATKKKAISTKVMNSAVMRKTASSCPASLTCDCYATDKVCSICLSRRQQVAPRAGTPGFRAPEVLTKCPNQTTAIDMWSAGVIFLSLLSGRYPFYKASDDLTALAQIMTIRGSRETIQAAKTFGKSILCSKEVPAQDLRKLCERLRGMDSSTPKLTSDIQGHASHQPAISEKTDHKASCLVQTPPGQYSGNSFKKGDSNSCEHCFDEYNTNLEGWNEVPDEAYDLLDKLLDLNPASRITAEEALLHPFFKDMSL
Chain of 320 wild-type protein kinases (Homo sapiens, UniProt P12931) (P12931 whole entry): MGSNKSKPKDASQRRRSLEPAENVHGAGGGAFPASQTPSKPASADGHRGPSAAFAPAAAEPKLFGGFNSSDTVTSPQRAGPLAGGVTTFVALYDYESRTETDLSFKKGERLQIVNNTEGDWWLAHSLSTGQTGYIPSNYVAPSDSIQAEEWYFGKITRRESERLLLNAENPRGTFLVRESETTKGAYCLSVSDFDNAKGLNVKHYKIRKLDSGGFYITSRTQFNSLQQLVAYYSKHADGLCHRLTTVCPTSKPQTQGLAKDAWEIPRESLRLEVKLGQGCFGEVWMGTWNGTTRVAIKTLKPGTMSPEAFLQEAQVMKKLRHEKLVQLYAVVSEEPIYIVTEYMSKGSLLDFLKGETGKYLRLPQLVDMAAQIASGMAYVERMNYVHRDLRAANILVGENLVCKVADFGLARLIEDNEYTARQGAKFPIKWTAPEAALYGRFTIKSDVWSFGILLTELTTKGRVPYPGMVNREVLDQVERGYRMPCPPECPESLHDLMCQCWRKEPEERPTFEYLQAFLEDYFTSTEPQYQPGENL

In the case of `C#Cc1cc(Nc2ncnc3cc(I)ccc23)ccc1Cl` [Compound 41], the Residual activity in experiment [1] (CDC7/DBF4, 1.0E-06 M) is listed as 90 % of control; in experiment [1] (CDC7/DBF4, 1.0E-07 M) it was 89 % of control; in [2] (1.0E-06 M), 124 % of control; in experiment [2] (1.0E-07 M), 199 % of control; in experiment [4] (GRK2, 1.0E-06 M) it was 117 % of control; in experiment [4] (GRK2, 1.0E-07 M) it was 104 % of control. In addition, the Residual activity in [5] (1.0E-06 M) is 118 % of control; in experiment [5] (1.0E-07 M) it was 124 % of control; in [6] (CDK7/CycH/MAT1, 1.0E-06 M), 81 % of control; in experiment [6] (CDK7/CycH/MAT1, 1.0E-07 M) it was 93 % of control; in experiment [9] (DYRK2, 1.0E-06 M), 61 % of control; in experiment [9] (DYRK2, 1.0E-07 M), 84 % of control. Besides, the “Residual activity, SRC (GST-HIS-tag)” value in [3] (assay conc. 1.0E-06 M) is 86 % of control; in experiment [3] (assay conc. 1.0E-07 M) it was 108 % of control. In addition, the entries for the “Residual activity, TRK-C” value in experiment [7] (assay conc. 1.0E-06 M) and in experiment [7] (assay conc. 1.0E-07 M) were 105 % of control and 115 % of control, respectively. In addition, the “Residual activity, TTBK1” value in [8] (assay conc. 1.0E-06 M) is listed as 102 % of control; in experiment [8] (assay conc. 1.0E-07 M), 113 % of control. In addition, the “Residual activity, STK39” value in experiment [10] (assay conc. 1.0E-06 M) is 98 % of control; in [10] (assay conc. 1.0E-07 M), 106 % of control.
On to `C#Cc1cc(Nc2ncnc3cc(OC)c(OC)cc23)ccc1Cl` [Compound 45], for which the Residual activity is listed as 88 % of control in experiment [1] (CDC7/DBF4, 1.0E-06 M); 107 % of control in experiment [1] (CDC7/DBF4, 1.0E-07 M); 107 % of control in experiment [2] (1.0E-06 M); 121 % of control in experiment [2] (1.0E-07 M); 111 % of control in experiment [4] (GRK2, 1.0E-06 M); 96 % of control in experiment [4] (GRK2, 1.0E-07 M). Besides, the Residual activity was 120 % of control in [5] (1.0E-06 M); 124 % of control in experiment [5] (1.0E-07 M); 79 % of control in experiment [6] (CDK7/CycH/MAT1, 1.0E-06 M); 74 % of control in experiment [6] (CDK7/CycH/MAT1, 1.0E-07 M); 71 % of control in experiment [9] (DYRK2, 1.0E-06 M); 89 % of control in experiment [9] (DYRK2, 1.0E-07 M). Also, the “Residual activity, SRC (GST-HIS-tag)” value in [3] (assay conc. 1.0E-06 M) is 90 % of control; in experiment [3] (assay conc. 1.0E-07 M) it was 100 % of control. Besides, the entries for the “Residual activity, TRK-C” value in experiment [7] (assay conc. 1.0E-06 M) and in [7] (assay conc. 1.0E-07 M) were 113 % of control and 136 % of control, respectively. Moreover, the figures for the “Residual activity, TTBK1” value in experiment [8] (assay conc. 1.0E-06 M) and in [8] (assay conc. 1.0E-07 M) were 101 % of control and 109 % of control, respectively. The “Residual activity, STK39” value in experiment [10] (assay conc. 1.0E-06 M) was 91 % of control; in [10] (assay conc. 1.0E-07 M), 102 % of control.

Source of the values: publication PMC9329436, “Optimization of the 4-anilinoquin(az)oline scaffold as epidermal growth factor receptor (EGFR) inhibitors for chordoma utilizing a toxicology profiling assay platform” (Scientific Reports, 2022).
